Entries after “also recorded” stand apart in the source; their conditions may differ.
Experiments:
UCH-L1 [1] = assay: Membrane bound and cytosolic UCH-L1 in SH-SY5Y cells (2D electrophoresis, Western blotting); assay type: cell-based; conditions: compared to DMSO
Protocol: 2D electrophoresis: For the isolation of total cellular protein, cultured SH-SY5Y cells maintained as described above were rinsed with ice-cold PBS. Cells were lysed in 1 ml dSDS buffer (50 mM Tris-HCl, pH 8.0 0.1% SDS) supplemented with protease inhibitor cocktail. Lysates were boiled for 3 min, and were treated with Dnase and Rnase as described. Lysates were precipitated with ice-cold acetone for at least 2 hours, and pellets were resuspended in 2D sample buffer (8M urea, 0.5% CHAPS, 0.2% DTT, 0.5% IPG buffer, 0.002% bromophenol blue). 2D electrophoresis was carried out according to manufacture's protocol (Amersham Life Science). 7 cm pH 4-7 strips were used. For SH-SY5Y membrane fraction, culture SH-SY5Y cells were rinsed with cold PBS and harvested with lysis buffer (50 mM Tris-HCl, pH 8.0, 1 mM ZnAc2, 250 mM sucrose). Lysate was passed through 25G needles for several times and spun at 1000 g for 5 min. […]
(§1) Western Blotting: Following transfer of SDS gels onto NC membrane, all membranes were blocked with 5% non-fat milk in TBST (50 mM Tris-HCl pH7.4, 150 mM NaCl, 0.1% Tween 20), and incubated with primary antibody overnight with 1% BSA in TBST, washed three times with TBST, and incubated with horseradish peroxidase-conjugated secondary antibody for 1 hour (Promega). Bound antibodies were detected using enhanced chemiluminascence (NEM). […]

UCH-L1 [2] = assay: Total amount and turnover of UCH-L1 in SH-SY5Y cells (pulse-chase); assay type: cell-based
α-synuclein [3] = assay: α-synuclein degradation assay in transfected COS-7 cells (quantitative Western blotting); assay type: cell-based; conditions: COS-7 cells
Excerpt: Plasmids: C220S cDNA was generated by PCR site-specific mutagenesis. For the PCR, the 5′ primer is uchforw SEQ ID NO: 1 ([…]), and 3′ primer is uchc220s SEQ ID NO:2 (CTAAGA […]). Wt UCH-L1 served as the template. The PCR fragment was inserted into pcDNA vector. For S18YC220S mutant, S18Y UCH-L1 served as the template in PCR. For the FLAG tagged UCH-L1, the 5′ primer is FLAGuchforw SEQ ID NO: 3 ([…] CGATGGAG), and the 3′ primer is uchrev SEQ ID NO: 4 ([…]). Wt UCH-L1 or C220S served as the template. PCR fragment was purified and inserted into pcDNA vector. For the FLAG tagged UCH-L3, the 5′ primer is L3HindIII SEQ ID NO: 5 (CTAAAGCTTATGGACTAC […]), the 3′primer is L3XhoISAA SEQ ID NO: 6 ([…]). […] After 24 hours of incubation, the cells were lysed with Tris buffer (50 mM Tris, 2% SDS, 0.1% NP-40), and subjected to SDS-PAGE, followed by quantitative Western blotting.
as §1

[4] = tested on: primary dopaminergic cultures; assay: α-synuclein toxicity in primary dopaminergic cultures; assay type: cell-based
α-synuclein [5] = assay: α-synuclein accumulation in SH-SY5Y cells infected with α-synuclein-expressing adenovirus (Western blotting, normalized against actin); assay type: cell-based
Protocol: Western Blotting: Following transfer of SDS gels onto NC membrane, all membranes were blocked with 5% non-fat milk in TBST (50 mM Tris-HCl pH7.4, 150 mM NaCl, 0.1% Tween 20), and incubated with primary antibody overnight with 1% BSA in TBST, washed three times with TBST, and incubated with horseradish peroxidase-conjugated secondary antibody for 1 hour (Promega). Bound antibodies were detected using enhanced chemiluminascence (NEM).
Since α-synuclein neurotoxicity is dose-dependent, it follows that accumulation of α-synuclein, caused by UCH-L1 farnesylation, should promote its toxicity. […] These cells express high endogenous levels of UCH-L1. […] The unit of y-axis is 10^5 /ml. (F) Cell viability was assessed by the amount of metabolic activity using MTT assay. […] The effect of FTI-277 on the α-synuclein accumulation in the SH-SY5Y infected with α-synuclein-expressing adenovirus were analyzed by Western blotting (B) and the amount of α-synuclein (C) was quantified using NIH Image program and normalized against the amount of actin.

[6] = tested on: SH-SY5Y cells overexpressing α-synuclein; assay: α-synuclein toxicity in SH-SY5Y cells infected by α-synuclein-expressing adenovirus (Trypan blue viable cell counting, MTT assay); assay type: cell-based
Protocol: Viral Infection: Viral infection and MTT assay in SH-SY5Y cells: The viruses were amplified and purified according to the published procedure. SH-SY5Y cells were grown on 100 mm petri-dishes and induced with 100 nM retinoic acid for 3-5 days before the virus infection with M.I.O at 75. Viruses were diluted with DPBS to desired M.I.O. After four hours of incubation, 10 ml growth medium was added. On the second day, cells were splitted into 96-well plates and treated with compounds for next 48 hours. The growth medium in each well was replaced with growth medium with 5 ug/ml MTT. Medium was removed after three hours incubation, and 200 ul isopropyl (0.04N HCl) was added into each well. The signal was read at 570 nm.
Viable cell counting: At stated time poins, SH-SY5Y cells were trypsinized with 100 ul trypsin-EDTA for 1 minute and neutralized with 400 ul growth medium. Cell suspension was made up by mixing 0.2 ml of cells in growth medium, 0.3 ml of HBSS and 0.5 ml of 0.4% Trypan Blue solution. Viable cell numbers were counted by standard cell counting chamber.
Since α-synuclein neurotoxicity is dose-dependent, it follows that accumulation of α-synuclein, caused by UCH-L1 farnesylation, should promote its toxicity. […] These cells express high endogenous levels of UCH-L1. […] The unit of y-axis is 10^5 /ml. (F) Cell viability was assessed by the amount of metabolic activity using MTT assay. […]

α-synuclein [7] = assay: Immunostaining for human α-synuclein in brain sections of α-synuclein transgenic mice; assay type: in vivo; conditions: 35 mg/kg twice a day orally, 30 days, vs vehicle
Protocol: (§2) Farnesyl transferase inhibitors Zarnestra and OSI-754 were administered to mice of the α-synuclein transgenic line described in Masliah et al. (Masliah et al. “Dopaminergic loss and inclusion body formation in alpha-synuclein mice: implications for neurodegenerative disorders” Science 287(5456):1265-69, 2000; incorporated herein by reference). Animals from this line have α-synuclein neuronal inclusions in the cortex, hippocampus, and the olfactory bulb (Masliah et al. “Dopaminergic loss and inclusion body formation in alpha-synuclein mice: implications for neurodegenerative disorders” Science 287(5456):1265-69, 2000; incorporated herein by reference). Transgenic mice were orally administered either FTI in 20% cyclodextrin solution or the same volume of vehicle alone twice a day for 30 or 90 days. In some cases, non-transgenic mice also received vehicle twice a day for 30 to 90 days. At the end of treatment, mice were sacrificed, and the brains removed and hemisected. One hemisphere of each was fixed in 4% paraformaldehyde/PBS (pH 7.4), cryoperserved, then sectioned for histology. The other hemisphere was subdivided into four brain regions, including the cortex and hippocampus, that were homogenized and processed into cytoplasmic and membrane fractions.
Formation of α-synuclein inclusions in the cortex and hippocampus was probed by immunostaining with an antibody for human α-synuclein. Cells positive for human α-synuclein were quantified. […] These regions were also analyzed for ubiquitin-immunoreactive inclusions and by the Campbell Switzer method of silver staining. Ubiquitin is known to be a constituent of Lewy Bodies and in the α-synculein inclusions found in the transgenic mouse line used in the study (Masliah et al. “Dopaminergic loss and inclusion body formation in alpha-synuclein mice: implications for neurodegenerative disorders” Science 287(5456):1265-69, 2000; incorporated herein by reference). […] Campbell-Switzer staining is a general marker of Lewy Body type inclusions (Uchihara et al. “Silver stainings distinguish Lewy bodies and glial cytoplasmic inclusions: comparison between Gallyas-Braak and Campbell-Switzer methods” Acta Neuropathol. (Berl.) 110(3):255-60, 2005; incorporated herein by reference).

α-synuclein [8] = assay: Sandwich ELISA of total α-synuclein in brain fractions of α-synuclein transgenic mice; assay type: in vivo; conditions: 35 mg/kg twice a day, 30 days
Protocol: as §2
Total α-synuclein levels were analyzed by a sandwich ELISA assay similar to one previously described (El-Agnaf et al. “Detection of oligomeric forms of alpha-synuclein protein in human plasma as a potential biomarker for Parkinson's disease” FASEB J. 20(3):419-25, 2006; incorporated herein by reference). In the cortex of vehicle treated animals, α-synuclein protein levels in the α-synuclein transgenic line are greater than in non-transgenic mice in both cytoplasmic (FIG. 10) and membrane fractions (FIG. 11).

[9] = tested on: ubiquitin-immunoreactive inclusions; assay: Ubiquitin immunohistochemistry in brain of α-synuclein transgenic mice; assay type: in vivo; conditions: 35 mg/kg twice a day, 30 days; vs vehicle
Protocol: (§3) Farnesyl transferase inhibitors Zarnestra and OSI-754 were administered to mice of the α-synuclein transgenic line described in Masliah et al. (Masliah et al. “Dopaminergic loss and inclusion body formation in alpha-synuclein mice: implications for neurodegenerative disorders” Science 287(5456):1265-69, 2000; incorporated herein by reference). Animals from this line have α-synuclein neuronal inclusions in the cortex, hippocampus, and the olfactory bulb (Masliah et al. “Dopaminergic loss and inclusion body formation in alpha-synuclein mice: implications for neurodegenerative disorders” Science 287(5456):1265-69, 2000; incorporated herein by reference). Transgenic mice were orally administered either FTI in 20% cyclodextrin solution or the same volume of vehicle alone twice a day for 30 or 90 days. In some cases, non-transgenic mice also received vehicle twice a day for 30 to 90 days. At the end of treatment, mice were sacrificed, and the brains removed and hemisected. […]
(§4) Formation of α-synuclein inclusions in the cortex and hippocampus was probed by immunostaining with an antibody for human α-synuclein. Cells positive for human α-synuclein were quantified. […] These regions were also analyzed for ubiquitin-immunoreactive inclusions and by the Campbell Switzer method of silver staining. […]

farnesylated UCH-L1 = assay: Quantitative Western Blot of farnesylated UCH-L1 in cortex membrane fraction of α-synuclein transgenic mice; assay type: in vivo; conditions: 35 mg/kg twice a day, 30 days, 35 mg/kg
Protocol: Farnesyl transferase inhibitors Zarnestra and OSI-754 were administered to mice of the α-synuclein transgenic line described in Masliah et al. (Masliah et al. “Dopaminergic loss and inclusion body formation in alpha-synuclein mice: implications for neurodegenerative disorders” Science 287(5456):1265-69, 2000; incorporated herein by reference). Animals from this line have α-synuclein neuronal inclusions in the cortex, hippocampus, and the olfactory bulb (Masliah et al. “Dopaminergic loss and inclusion body formation in alpha-synuclein mice: implications for neurodegenerative disorders” Science 287(5456):1265-69, 2000; incorporated herein by reference). Transgenic mice were orally administered either FTI in 20% cyclodextrin solution or the same volume of vehicle alone twice a day for 30 or 90 days. In some cases, non-transgenic mice also received vehicle twice a day for 30 to 90 days. At the end of treatment, mice were sacrificed, and the brains removed and hemisected. One hemisphere of each was fixed in 4% paraformaldehyde/PBS (pH 7.4), cryoperserved, then sectioned for histology. […]
Farnesylated UCH-L1 in the cortex is contained in the membrane fraction. The amount of UCH-L1 was determined by quantitative Western Blot.
Total α-synuclein levels were analyzed by a sandwich ELISA assay. […] The amount of farnesylated UCH-L1 was determined by quantitative Western Blot, then normalized to actin.

[10] = tested on: Lewy body-like inclusions; assay: Campbell Switzer silver staining of Lewy body-like inclusions in α-synuclein transgenic mice; assay type: in vivo; conditions: 35 mg/kg twice a day, 30 days; vs vehicle
Protocol: as §3, §4

[11] = cortex, vs vehicle-treated transgenic mice

SMILES	amount of cytosolic UCH-L1 (UCH-L1 [1])	amount of membrane bound UCH-L1 (UCH-L1 [1])	total amount of UCH-L1 (UCH-L1 [2])	rate of turnover of UCH-L1 (UCH-L1 [2]; pulse-chase experiment not shown)	synuclein level (α-synuclein [3])	α-synuclein toxicity [4]	amount of α-synuclein (α-synuclein [5])	neuroprotective effect of FTI-277 on co-administration of the small-molecule UCH-L1 inhibitor ([6]; SH-SY5Y cells infected with α-synuclein adenovirus, data not shown)	α-synuclein toxicity / loss of cells ([6]; neuronally differentiated SH-SY5Y cells infected with α-synuclein adenovirus)	α-synuclein-positive cells per mm^2 (α-synuclein [7]; cortex)	α-synuclein-positive cells per mm^2 (α-synuclein [7]; hippocampus)	levels of α-synuclein protein in the cortex (α-synuclein [8])	α-synuclein protein levels, cytoplasmic fraction (α-synuclein [8]; [11])	α-synuclein protein levels, membrane fraction (α-synuclein [8]; [11])	ubiquitin-immunoreactive inclusions [9]	amount of farnesylated UCH-L1 (farnesylated UCH-L1)	inclusions by Campbell-Switzer staining [10]
COC(=O)[C@H](CCSC)NC(=O)c1ccc(NC[C@@H](N)CS)cc1-c1ccccc1 [FTI-277]	without affecting	significant decrease; also recorded: decreased the amount of the membrane-associated species	reduced the total amount of UCH-L1	increased its rate of turnover	lowers synuclein level	inhibit α-synuclein toxicity	reducing the amount of α-synuclein accumulation; also recorded: reduced the amount of α-synuclein	eliminated	inhibits synuclein toxicity; also recorded: rescued α-synuclein toxicity; also recorded: significantly decreased loss of cells	–	–	–	–	–	–	–	–
Cn1cncc1C(N)(c1ccc(Cl)cc1)c1ccc2c(c1)c(-c1cccc(Cl)c1)cc(=O)n2C (centres unmarked) [Zarnestra]	–	–	–	–	–	–	–	–	–	significantly fewer	significantly fewer	decreased levels of α-synuclein protein	lower α-synuclein protein levels	lower α-synuclein protein levels	fewer ubiquitin-immunoreactive inclusions	decreased; also recorded: decreased the amount of farnesylated UCH-L1 in transgenic mice to levels similar to non-transgenic mice	fewer inclusions

Reference: US20110136867A1, “Treatment of Synucleinopathies” (priority 2006, published 2011)
